This is an account of results in paper PMC10454375, “Cell-Impermeable Inhibitors Confirm That Intracellular Human Transglutaminase 2 Is Responsible for the Transglutaminase-Associated Cancer Phenotype” (International Journal of Molecular Sciences, 2023).

Data set [1] in a line: MDCK cell permeability assay. It is filed as in vitro ADME. The following applies: dog, without Pgp inhibitor.
A further data set concerns P-gp. Description: MDCK cell permeability assay. It is filed as in vitro ADME. The conditions noted are these: dog, without Pgp inhibitor.
For the next data set, the target named is T1, TG6 (Homo sapiens, UniProt O95932).
T1 construct: purchased Zedira GmbH (Darmstadt, Germany)
T1 sequence (O95932 1-706): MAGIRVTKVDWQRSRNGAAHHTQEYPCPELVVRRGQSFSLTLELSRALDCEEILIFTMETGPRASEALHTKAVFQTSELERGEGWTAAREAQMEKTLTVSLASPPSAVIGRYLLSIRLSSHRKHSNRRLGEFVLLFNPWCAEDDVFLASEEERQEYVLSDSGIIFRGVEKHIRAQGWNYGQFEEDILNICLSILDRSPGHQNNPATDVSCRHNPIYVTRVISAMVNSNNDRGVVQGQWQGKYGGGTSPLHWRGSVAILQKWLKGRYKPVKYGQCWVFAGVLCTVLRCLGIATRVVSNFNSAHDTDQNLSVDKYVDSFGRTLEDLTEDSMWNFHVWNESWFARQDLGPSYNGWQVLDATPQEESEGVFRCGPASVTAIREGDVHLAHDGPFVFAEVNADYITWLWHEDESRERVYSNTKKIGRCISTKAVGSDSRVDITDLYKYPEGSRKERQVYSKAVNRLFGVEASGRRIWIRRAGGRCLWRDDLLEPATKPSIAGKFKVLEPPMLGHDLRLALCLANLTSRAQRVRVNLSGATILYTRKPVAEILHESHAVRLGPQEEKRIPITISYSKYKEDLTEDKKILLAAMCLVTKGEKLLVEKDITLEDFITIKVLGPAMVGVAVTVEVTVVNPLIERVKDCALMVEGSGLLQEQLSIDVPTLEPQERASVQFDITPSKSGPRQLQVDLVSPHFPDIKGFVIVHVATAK
The data set can be described thus: TGase isozyme selectivity, TG6 with AL5 substrate. It is filed as biochemical. The following applies: [I]/α identical to that of the TG2 assay. The text has this: In the development of probes for TGases, isozyme selectivity is always a significant challenge. Since the catalytic machinery of the active sites of all TGases features a conserved Gly-Gln-Cys-Trp-Val sequence, selectivity for one isozyme over the others requires exploitation of slight differences in the protein substrate binding sites. In order to assess the isozyme selectivity of our cell-impermeable inhibitors, TG2 and four other therapeutically relevant TGases (Factor XIII, TG1, TG3, and TG6) were exposed to a concentration of inhibitor representing the same apparent competition with respect to the assay substrate (AL5 [38] or A101 [42, 43]). In other words, both the substrate and inhibitor concentrations were varied so that the [I]/α values were identical. […] This provides confidence that in further applications, these cell-impermeable inhibitors will selectively target TG2 over other transglutaminases.
[…] In brief, 125 µL assay buffer #1 (containing TRIS, CaCl2, and NaCl pH 7.5), 18 µL assay buffer #2 (containing TCEP and acceptor substrate H-Gly-OMe pH 7.5), and a respective concentration of inhibitor aqueous working stock balanced with various volumes of water were combined in a 96-well black plate with clear bottom/top. […] The isopeptidase activity of the respective TGase was then monitored at Ex/Em = 313/418 nm with a BioTek Synergy 4 plate reader at 25 °C. […]

A short description of the next data set: PAMPA test. It is filed as in vitro ADME. The conditions noted are these: compound not detected in receptor compartment, limit of detection reported. The source says: The cell-impermeable inhibitors 17 and 18 were designed to violate virtually all of the rules for cellular permeability described by Lipinski and Veber. They were also empirically evaluated with respect to their pharmacokinetic properties, in particular to determine their cell permeability. In a PAMPA test, the −Log Pe values were very high (Table 2). […] Indeed, neither compound was even detected in the receptor compartment for the PAMPA, resulting in the lower limit of detection being reported as an approximate value.

Peptide text beside a SMILES is read from it. * marks the point of attachment. X1 = C=CC(=O)NCCCCC(NC(=O)OCc1ccccc1)C(=O)N1CCN(C(=O)C(CCC(=O)*)NC(=O)c2cccc3ccccc23)CC1

In data set [1], `C=CC(=O)NCCCCC(NC(=O)OCc1ccccc1)C(=O)N1CCN(C(=O)C(CCC(=O)NCC(=O)NCC(=O)NCC(=O)NC(CC(=O)O)C(=O)NC(CC(=O)O)C(=O)NC(CC(=O)O)C(=O)O)NC(=O)c2cccc3ccccc23)CC1` (stereo not shown) [Compound 18] (X1-GGGDDD-OH; configuration not given here) showed an apparent permeability from apical to basolateral (Papp A→B) of 0.47 ×10⁻⁶ cm/s and a Papp B→A of 0.56 ×10⁻⁶ cm/s. Moreover, in the data set with P-gp, the efflux ratio turned out to be 1.18. Moreover, at TG6, the “inhibition of TG6” value was “no detectable inhibition”. The “−Log Pe” value in the data set “PAMPA test” was greater than 8.79.

Turning to `C=CC(=O)NCCCCC(NC(=O)OCc1ccccc1)C(=O)N1CCN(C(=O)C(CCC(=O)NCCCCCC(=O)NC(CC(=O)O)C(=O)NC(CC(=O)O)C(=O)NC(CC(=O)O)C(=O)O)NC(=O)c2cccc3ccccc23)CC1` (stereo not shown) [Compound 17], in data set [1], the Papp A→B came out at 0.31 ×10⁻⁶ cm/s and the apparent permeability from basolateral to apical (Papp B→A) stood at 0.42 ×10⁻⁶ cm/s. In the data set with P-gp, the efflux ratio is 1.39. The “inhibition of TG6” value on TG6 is recorded as “no detectable inhibition”. In addition, the “−Log Pe” value in the data set “PAMPA test” is listed as greater than 9.02.
